In US10159687B2, “Prodrugs of vitamin K” (KAPPA BIOSCIENCE AS, priority 2012, dated 2018):

Tests used:
[1] = Light stability in ethyl acetate (HPLC % area); type: physicochemical; conditions: for After 19 hrs % (content as % area of the total peak area) / Initial % (content as % area of the total peak area) / MK-7 content in the sample after 19 hrs: in ethyl acetate; for After 19 hrs % (content as % area of the total peak area): after 19 hrs of light exposure (ordinary room lighting); for Initial % (content as % area of the total peak area): clear glass vial, initial time point; for light stability compared with the diacetylated compound: light exposure, comparison in words; for MK-7 content in the sample after 19 hrs: after 19 hrs of light exposure, MK-7 formed from the derivative
Procedure: The light stability of MK-7 was compared certain example compounds as hereinbefore described. Compounds were dissolved separately in ethyl acetate or MCT oil, transferred to glass vial (clear glass) and placed on the bench in a well lit laboratory (ordinary room lighting). The samples were analyzed after 19 hours of light exposure or more.
(§1) The samples were analyzed by HPLC using aHPLC_KB_001, with the HPLC conditions detailed below.
(§2) HPLC-DAD high pressure system: Agilent, LC system 1100 series
(§3) Analytical column: Supelcosil C-18, 4.6×250 mm, 5 µm
(§4) Column temperature: 40° C.
(§5) Eluent system: 50% Solvent C: MeOH/Water with 0.1% v/v acetic acid (95/5 v/v) 50% Solvent D: Isopropanol
(§6) The content of MK-7 and the MK-7 derivative in the samples have been quantified as % area of the total peak area in the chromatogram.

[2] = Light stability in MCT oil (HPLC % area); type: physicochemical; conditions: for Purity after 1 h (%) / MK7 content in the sample after 1 h: light exposure 1 h; for Purity after 1 d (%) / MK7 content in the sample after 1 d: light exposure 1 d; for Purity after 3 d (%) / MK7 content in the sample after 3 d: light exposure 3 d; for MK7 content in the sample after 3 d: in %
Procedure: The light stability of MK-7 was compared certain example compounds as hereinbefore described. Compounds were dissolved separately in ethyl acetate or MCT oil, transferred to glass vial (clear glass) and placed on the bench in a well lit laboratory (ordinary room lighting). […]
as §1, §2, §3, §4, §5, §6

[3] = Rat study: MK-7 in plasma after oral gavage in sunflower oil; type: in vivo, male Sprague Dawley Rats; conditions: rats
Procedure: Brief Procedure: Rats: Male Rats aged 6 to 8 weeks and weighing around 180 to 225 g. Animals were fasted overnight with free access to water. Animals were administered test substance by oral gavage with a dose of 100 μg/kg body weight (in recommended formulation and dose volume). Blood samples (150-200 μl) were collected at various time points during the next 48 hours post dose. To determine the bioavailability of different formulations containing MK-7 in male e Sprague Dawley Rats through gavage. Formulations were both dissolved in sunflower oil. Approximately 0.4 ml/animal (depending on the weight of the animal) via oral gavage (100 μg/kg body weight). There were 6 animals per formulation. Blood samples were collected from the tail vein of each animal and transferred into lithium heparin tubes at 2 and 12 hours post dose. Quantification of analyte in plasma was determined by LC-MS-MS analysis: Analyte: MK-7 in plasma. The data are mean of four measurements (low and high values are not included).

Row | Structure (SMILES) | After 19 hrs % (content as % area of the total peak area) [1] [%] | Initial % (content as % area of the total peak area) [1] [%] | MK-7 content in the sample after 19 hrs [1] [%] | MK7 content in the sample after 1 h [2] [%] | MK7 content in the sample after 1 d [2] [%] | MK7 content in the sample after 3 d [2] | MK7 content in the sample at start ([2]; start) [%] | degradation after light exposure ([1]; in solution, after 19 hours of light exposure (below Table 1, ethyl acetate)) | degradation after light exposure ([2]; after 24 hours of light exposure) | light stability compared with the diacetylated compound [1] | Purity after 1 h (%) [2] [%] | Purity after 1 d (%) [2] [%] | Purity after 3 d (%) [2] [%] | Start purity from CoA (%) ([2]; start) | serum level 12 hours after administration compared with MK-7 (in words) [3]
1 | CC(C)=CCC/C(C)=C/CC/C(C)=C/CC/C(C)=C/CC/C(C)=C/CC/C(C)=C/CC/C(C)=C/Cc1c(C)c(OC(=O)c2ccccc2)c2ccccc2c1OC(=O)c1ccccc1 [Example 1, 2-((2E,6E,10E,14E,18E,22E)-3,7,11,15,19,23,27-heptamethyl-octacosa-2,6,10,14,18,22,26-heptaen-1-yl)-3-methylnaphthalene-1,4-diyl dibenzoate] | 95.4 | 98.5 | – | – | – | – | – | – | – | more stable than the diacetylated compound | 98.3 | 97.3 | 92.9 | 98.5 | –
2 | CCOP(=O)(OC/C=C(\C)CC/C=C(\C)CC/C=C(\C)CC/C=C(\C)CC/C=C(\C)CC/C=C(\C)CCC=C(C)C)Oc1c(CC)c(C)c(OC(=O)c2ccccc2)c2ccccc12 (stereo not shown) [Example 4, 4-((ethoxy(((2E,6E,10E,14E,18E,22E)-3,7,11,15,19,23,27-heptamethyl-octacosa-2,6,10,14,18,22,26-heptaen-1-yl)oxy)phosphoryl)oxy)-3-ethyl-2-methylnaphthalen-1-yl benzoate] | – | – | – | – | – | – | – | – | – | – | 86.4 | 84.4 | 81.5 | 86.7 | –
3 | CCC(=O)Oc1c(C)c(C/C=C(\C)CC/C=C(\C)CC/C=C(\C)CC/C=C(\C)CC/C=C(\C)CC/C=C(\C)CCC=C(C)C)c(OC(=O)CC)c2ccccc12 [Example 7, 2-((2E,6E,10E,14E,18E,22E)-3,7,11,15,19,23,27-heptamethyloctacosa-2,6,10,14,18,22,26-heptaen-1-yl)-3-methylnaphthalene-1,4-diyl dipropionate] | 97.7 | 98.5 | – | – | – | – | – | – | – | more stable than the diacetylated compound | 98.0 | 96.7 | 93.8 | 98.5 | the same
4 | CCOP(=O)(OCC)Oc1c(C)c(C/C=C(\C)CC/C=C(\C)CC/C=C(\C)CC/C=C(\C)CC/C=C(\C)CC/C=C(\C)CCC=C(C)C)c(OC(=O)CC)c2ccccc12 [Example 9, 4-((diethoxyphosphoryl)oxy)-2-((2E,6E,10E,14E,18E,22E)-3,7,11,15,19,23,27-heptamethyloctacosa-2,6,10,14,18,22,26-heptaen-1-yl)-3-methylnaphthalen-1-yl propionate] | – | – | – | – | – | – | – | – | – | – | 90.1 | 89.0 | 84.2 | 90.7 | –
5 | CCC(=O)Oc1c(C/C=C(\C)CC/C=C(\C)CC/C=C(\C)CC/C=C(\C)CC/C=C(\C)CC/C=C(\C)CCC=C(C)C)c(C)c(OC(=O)[C@@H](NC(=O)OC(C)(C)C)C(C)C)c2ccccc12 [Example 10, 3-((2E,6E,10E,14E,18E,22E)-3,7,11,15,19,23,27-heptamethyloctacosa-2,6,10,14,18,22,26-heptaen-1-yl)-2-methyl-4-(propionyloxy)naphthalen-1-yl (tert-butoxycarbonyl)-L-valinate] | – | – | – | – | – | – | – | – | – | – | 92.7 | 92.0 | 89.0 | 93.5 | –
6 | CCC(=O)Oc1c(C/C=C(\C)CC/C=C(\C)CC/C=C(\C)CC/C=C(\C)CC/C=C(\C)CC/C=C(\C)CCC=C(C)C)c(C)c(OC(=O)CCNC(=O)OC(C)(C)C)c2ccccc12 [Example 12, 3-((2E,6E,10E,14E,18E,22E)-3,7,11,15,19,23,27-heptamethyloctacosa-2,6,10,14,18,22,26-heptaen-1-yl)-2-methyl-4-(propionyloxy)naphthalen-1-yl 3-((tert-butoxycarbonyl)amino)propanoate] | – | – | – | – | – | – | – | – | – | – | 91.9 | 89.4 | 84.4 | 92 | –
7 | CC(C)=CCC/C(C)=C/CC/C(C)=C/CC/C(C)=C/CC/C(C)=C/CC/C(C)=C/CC/C(C)=C/Cc1c(C)c(OC(=O)c2ccc(C(F)(F)F)cc2)c2ccccc2c1OC(=O)c1ccc(C(F)(F)F)cc1 [Example 13, 2-((2E,6E,10E,14E,18E,22E)-3,7,11,15,19,23,27-heptamethyloctacosa-2,6,10,14,18,22,26-heptaen-1-yl)-3-methylnaphthalene-1,4-diyl bis(4-(trifluoromethyl)benzoate)] | – | – | – | – | – | – | – | – | – | – | 83.6 | 84.8 | 79.6 | 90.2 | –

Further lines, with some results ahead:

Row | After 19 hrs % (content as % area of the total peak area) [1] [%] | Initial % (content as % area of the total peak area) [1] [%] | MK-7 content in the sample after 19 hrs [1] [%] | MK7 content in the sample after 1 h [2] [%] | MK7 content in the sample after 1 d [2] [%] | MK7 content in the sample after 3 d [2] | MK7 content in the sample at start ([2]; start) [%] | degradation after light exposure ([1]; in solution, after 19 hours of light exposure (below Table 1, ethyl acetate)) | degradation after light exposure ([2]; after 24 hours of light exposure) | Structure (SMILES) | light stability compared with the diacetylated compound [1] | Purity after 1 h (%) [2] [%] | Purity after 1 d (%) [2] [%] | Purity after 3 d (%) [2] [%] | Start purity from CoA (%) ([2]; start) | serum level 12 hours after administration compared with MK-7 (in words) [3]
8 | 71.2 | 93.3 | 23.4 | 13.1 | 18.0 | 23.65 | 4 | – | – | CC(C)=CCC/C(C)=C/CC/C(C)=C/CC/C(C)=C/CC/C(C)=C/CC/C(C)=C/CC/C(C)=C/Cc1c(C)c(O)c2ccccc2c1OC(=O)c1ccccc1 [Example 2A, 2-((2E,6E,10E,14E,18E,22E)-3,7,11,15,19,23,27-heptamethyloctacosa-2,6,10,14,18,22,26-heptaen-1-yl)-4-hydroxy-3-methylnaphthalen-1-yl benzoate] | – | 83.9 | 72.5 | 53.3 | 93.3 | –
9 | 87.6 | 91.5 | 2.8 | 2.7 | 4.1 | 5.6 | – | – | – | CC(C)=CCC/C(C)=C/CC/C(C)=C/CC/C(C)=C/CC/C(C)=C/CC/C(C)=C/CC/C(C)=C/Cc1c(C)c(OC(=O)c2ccccc2)c2ccccc2c1O [Example 2B, 3-((2E,6E,10E,14E,18E,22E)-3,7,11,15,19,23,27-heptamethyloctacosa-2,6,10,14,18,22,26-heptaen-1-yl)-4-hydroxy-2-methylnaphthalen-1-yl benzoate] | – | 91.9 | 84.6 | 63.8 | 91.5 | –
10 | 53.7 | 99.4 | – | – | – | – | – | approximately 50% | approximately 70% | CC(C)=CCC/C(C)=C/CC/C(C)=C/CC/C(C)=C/CC/C(C)=C/CC/C(C)=C/CC/C(C)=C/CC1=C(C)C(=O)c2ccccc2C1=O [MK-7, 2-((2E,6E,10E,14E,18E,22E)-3,7,11,15,19,23,27-heptamethyloctacosa-2,6,10,14,18,22,26-heptaen-1-yl)-3-methylnaphthalene-1,4-dione, reference compound] | – | 97.2 | 73.5 | 32.2 | 99 | –
